According to a melting point compilation (Tetko et al.; mined from patent text by program, amines drawn as free bases though some values may be those of a salt):

For CC(C)(C)c1ccc(O)c(CNS(=O)(=O)O)c1, which melting point is on record?
The melting point was 260 to 262 °C.

For CC1(CCS)CN2CCCC(C(=O)O)N2C1=O (stereo not drawn), which melting point is on record?
The melting point was 119 to 122 °C.

With CC(C)Nc1cccnc1N1CCN(C(=O)c2ccc(C(=O)N3CCN(C)CC3)cc2)CC1 as the molecule, how does the melting point read?
The melting point was 158 to 160 °C.

With Oc1ccc(N2CCN(n3ccnc3)CC2)cc1 as the molecule, how does the melting point read?
The melting point was 282 °C.

For Cc1cc(C)cc(S(=O)c2cccc(N)c2C#N)c1 (stereo not drawn), which melting point is on record?
Its melting point is 190 to 191 °C.

Which melting point does the source give for O=c1oc(-c2ccc(C(F)(F)F)cc2)nc2cc(F)ccc12 here?
The melting point was 137 to 139 °C.

For CC1=NOC2C3CC(C12)C1C(=O)OC(=O)C31 (stereo not drawn), which melting point is on record?
Its melting point is 194 to 197 °C.

Which melting point does the source give for Cn1nc(-c2ccccc2Cl)nc1-c1cccc([N+](=O)[O-])c1Cl here?
The melting point was 124 to 125 °C.

With COc1cn(-c2ccc(N3CC4(CC4)OC3=O)cc2F)nc(-c2ccnn2-c2ccccc2)c1=O as the molecule, how does the melting point read?
The melting point was 200 to 201 °C.

Which melting point does the source give for CN1CCN(c2cc(=O)c3ccc4ccccc4c3o2)CC1 here?
Its melting point is 184 to 185 °C.

With CNC(=O)c1ccc(-c2ccc3oc(C4CCN(C(=O)OC(C)C)CC4)nc3c2)cn1 as the molecule, how does the melting point read?
Its melting point is 158 to 161 °C.

Which melting point does the source give for O=C(NC1CC1)OC1c2ccccc2C(=O)N1c1ccc2ccc(Cl)nc2n1 (stereo not drawn) here?
Its melting point is 220 °C.

For CC1(C)CC(n2cc(C#N)c3ccccc32)c2cc(C#N)ccc2O1 (stereo not drawn), which melting point is on record?
The melting point was 175 to 178 °C.

For Cc1cc2c(=O)c(C(=O)O)cn(-c3cc(N)c(F)cc3F)c2cc1F, which melting point is on record?
The melting point was > 280 °C.

Which melting point does the source give for Cc1ccc2cccc(OCc3c(Cl)ccc(N4CC(=O)NCC4=O)c3Cl)c2n1 here?
The melting point was 211 to 213 °C.

For O=C(O)C1CSC(c2cc(Cl)ccc2OCCO[N+](=O)[O-])N1 (stereo not drawn), which melting point is on record?
Its melting point is 134 to 135 °C.

For CC1=C(CCN(O)C(N)=O)/C(=C/c2ccc(S(C)=O)cc2)c2ccccc21 (stereo not drawn), which melting point is on record?
The melting point was 166 to 169 °C.

For Cc1ccncc1NC(=O)OC(C)(C)C, which melting point is on record?
The melting point was 91 to 93 °C.

For Cn1nc2n(c1=O)-c1ccc(Cl)nc1C(c1ccccc1Cl)=NC2, which melting point is on record?
The melting point was 200 to 202 °C.

Which melting point does the source give for CC(C)CCOc1ccc(S(=O)(=O)C2(C(=O)NO)CCN(Cc3ccccc3)CC2)cc1 here?
The melting point was 106 °C.

For Cc1nc2c(C(F)(F)F)cccc2c(-c2ccccc2)c1C(=O)c1ccccc1, which melting point is on record?
Its melting point is 175 to 177 °C.

Which melting point does the source give for CC(=O)c1cc(=O)n(CCC(C(=O)NO)N(C)S(=O)(=O)c2ccc(Oc3ccccc3)cc2)c(=O)[nH]1 (stereo not drawn) here?
The melting point was 167 to 169 °C.

Which melting point does the source give for CSCCC(CS)NC(=O)OC(C)(C)C (stereo not drawn) here?
Its melting point is 37 °C.

With CC1(C)C(=O)C(C)(C)c2cc(C(F)CN3CCN(c4nsc5ccccc45)CC3)ccc21 (stereo not drawn) as the molecule, how does the melting point read?
The melting point was 64 to 73 °C.

Which melting point does the source give for C#CCc1cc(C(O)=S)cc(N)c1Oc1ccccc1 here?
The melting point was 167 to 168 °C.

With Cn1nccc1[C@H](O)c1ccccc1 as the molecule, how does the melting point read?
Its melting point is 81 to 83 °C.

With CCOC(=O)c1c(N2CCCCC2)c(C#N)c(=O)n2ccccc12 as the molecule, how does the melting point read?
Its melting point is 143 to 144 °C.

For CCCCCc1ccc(-c2ccc(-c3ccc(CC)cc3)cc2F)s1, which melting point is on record?
Its melting point is 44 °C.

With CCN(CC)C(=O)C(C)Cc1nc(-c2ccccc2)nc2ccccc12 (stereo not drawn) as the molecule, how does the melting point read?
Its melting point is 93.5 °C.

Which melting point does the source give for Cc1ccc(C)n1-c1ccc(C2(C#N)CCCC2)cc1 here?
The melting point was 117 to 120 °C.

For COc1ccc(N=C(N)N(C)C)c(N2CCOCC2)c1, which melting point is on record?
The melting point was 135 °C.

For COCOc1ccccc1-c1cc(-c2cccc([N+](=O)[O-])c2)c(C#N)c(N)n1, which melting point is on record?
Its melting point is 169 to 171 °C.

With CC(C)(C)[N+]([O-])=CCc1ccccc1 as the molecule, how does the melting point read?
Its melting point is 143 °C.

For COc1c(-n2cccc2)cc(CC(C#N)=CNc2ccccc2)cc1-n1cccc1, which melting point is on record?
Its melting point is 152 °C.

Which melting point does the source give for CO[C@@H]1CC[C@H](C(=O)O)Cc2onc(-c3ccc(Cl)cc3)c21 (relative stereo) here?
The melting point was 168 to 170 °C.

Which melting point does the source give for O=C(OCc1ccccc1)N1CCN(c2ccccc2)CC1 here?
The melting point was 49 to 51 °C.

With COc1ccc(S(=O)(=O)C2(C(=O)O)CCCC2)cc1 as the molecule, how does the melting point read?
The melting point was 89 to 91 °C.

With C=C1CCC2C3CCC4=CC(=O)CCC4C3CCC12C (stereo not drawn) as the molecule, how does the melting point read?
The melting point was 83 to 89 °C.

For CCOC(=O)C1=C(N)NC(c2ccccc2)=CC1c1cccc([N+](=O)[O-])c1 (stereo not drawn), which melting point is on record?
The melting point was 171 to 172 °C.

For CCOC(=O)Nc1cc(O)c(Cl)cc1F, which melting point is on record?
The melting point was 152 to 154 °C.

For COc1ccc(-c2nc(CCO)sc2-c2ccc(OC)cc2)cc1, which melting point is on record?
Its melting point is 101 to 104 °C.

With O=C(O)C#Cc1ccc(-c2ccc(Cl)cc2)cn1 as the molecule, how does the melting point read?
Its melting point is 210 °C.

For Cc1ccc(CC2CCC(C)(C)C2(O)Cn2cncn2)cc1 (stereo not drawn), which melting point is on record?
Its melting point is 118 to 120 °C.

With CCCCc1[nH]c(Cc2ccccc2)nc(=O)c1Cc1ccc(-c2ccccc2C(=O)O)cc1 as the molecule, how does the melting point read?
Its melting point is 219 °C.

Which melting point does the source give for CC(=O)c1c(CN2CCOCC2)[nH]c2ccc(Cl)cc12 here?
Its melting point is 120 to 121 °C.

For CCOC(=O)C(=O)N(c1ccccc1[N+](=O)[O-])C(C)(C)C, which melting point is on record?
Its melting point is 73 to 74 °C.

With CCOC(=O)C(=O)Nc1c([N+](=O)[O-])sc2ccc(Cl)cc12 as the molecule, how does the melting point read?
Its melting point is 126 to 128 °C.

Which melting point does the source give for COc1cc(F)ccc1C(=O)NC(C)c1nc(-c2ccncn2)cc(=O)n1C (racemic) here?
Its melting point is 201 to 203 °C.

With Cn1cc(-c2ccccc2)c(=O)c(-c2ccc(F)cc2Cl)c1 as the molecule, how does the melting point read?
Its melting point is 190 to 192 °C.

With CC(=O)OC(COc1ccc(/C=C/C(=O)O)c(Oc2ncc(C(F)(F)F)cc2Cl)c1)COC(C)C (stereo not drawn) as the molecule, how does the melting point read?
The melting point was 134 to 135 °C.

Which melting point does the source give for C[C@H](C(=O)O)C(C)(C)c1ccccc1 here?
Its melting point is 69 to 72 °C.

With COc1cccc(CNC(=O)c2nc3scc(-c4cccc(-c5ccc(C(=O)O)cc5)c4)c3c(=O)[nH]2)c1 as the molecule, how does the melting point read?
Its melting point is 259 to 260 °C.

Which melting point does the source give for COc1ccc(C(=O)Oc2ccc(O)cc2)cc1 here?
The melting point was 162 to 165 °C.

With O=C1/C(=C/c2cccs2)CNc2cc(OCCn3ccnc3)ccc21 as the molecule, how does the melting point read?
The melting point was 211 to 213 °C.

For CC(C)(C)C(Cl)=CC(=O)O, which melting point is on record?
The melting point was 146 to 148 °C.

Which melting point does the source give for C/C(N)=C/C(=O)OCCOC/C(C)=C/c1ccc(Cc2cccnc2)cc1 here?
Its melting point is 67 to 70 °C.

With O=P(Oc1ccc(-c2ccccc2)cc1)(Oc1ccc(-c2ccccc2)cc1)Oc1ccc(-c2ccccc2)cc1 as the molecule, how does the melting point read?
The melting point was 137 °C.

Which melting point does the source give for CC(C)(C)COc1ccc(N(CC(=O)O)C(=O)c2ccn(-c3ccc(F)cc3)c2)cc1C#N here?
The melting point was 248 to 249 °C.

For CC(C)(C)c1cc(C(=O)Nc2ccccc2C(=O)O)cc(C(C)(C)C)c1O, which melting point is on record?
The melting point was 202 to 203 °C.

For COC(=O)c1cc(F)c(C)c(N)c1Cl, which melting point is on record?
Its melting point is 51 to 52 °C.

Which melting point does the source give for NCCc1ccc(N2CCN(c3ccc(CC(=O)O)cc3)C2=O)cc1 here?
The melting point was > 250 °C.

Which melting point does the source give for Cc1cc(SCc2ccnc3c2nc(-c2ccc(C(F)(F)F)cc2)n3C)ccc1CCC(=O)O here?
The melting point was 89 to 91 °C.

With O=C1CCCn2c1cc1ccccc12 as the molecule, how does the melting point read?
Its melting point is 138 to 140 °C.

For O=C1CC(c2ccccc2)(c2cccs2)Oc2ccccc21 (stereo not drawn), which melting point is on record?
Its melting point is 78 to 80 °C.

Which melting point does the source give for Cc1cc2c(cc1C)CC(C)NC(=O)C2 (stereo not drawn) here?
Its melting point is 226 to 227 °C.

Which melting point does the source give for COc1cc(C2NC(C(=O)O)CS2)ccc1OCC(=O)NCCO[N+](=O)[O-] (stereo not drawn) here?
Its melting point is 151 to 152 °C.

Which melting point does the source give for O=C(NCc1cccc(C(F)(F)F)c1)c1sc2ccccc2c1O here?
The melting point was 139 to 141 °C.

For CN(C)S(=O)(=O)NCC1COc2ccccc2O1 (stereo not drawn), which melting point is on record?
The melting point was 76 to 78 °C.

Which melting point does the source give for CCOc1ccc(-c2ccc3c(c2)C=C(C(=O)Nc2ccc(CN(C)C4CCOCC4)cc2)CCS3(=O)=O)cc1F here?
Its melting point is 233 to 235 °C.

Which melting point does the source give for Cc1cc(Cl)cc(C(=O)Nc2cccc(Cl)n2)n1 here?
The melting point was 176 °C.

For CC(=O)c1cccc(Oc2ncc(C(F)(F)F)cc2F)c1, which melting point is on record?
Its melting point is 65 to 67 °C.

With N#Cc1ncc(-c2ccccc2)nc1Cl as the molecule, how does the melting point read?
Its melting point is 143 to 145 °C.

Which melting point does the source give for O=C(O)c1ccc(Cn2nnc(-c3cccc(I)c3)n2)cc1 here?
Its melting point is 241 to 242 °C.
